According to patent US20050107456A1, “Substituted pyrazolines for use as pesticides” (priority 2002, published 2005):
Like-named read-outs stand apart in the source and are kept apart here.

Key:
[1] = test system: larvae of the mustard beetle (Phaedon cochleariae); test: Phaedon larvae test; format: in vivo; details: active compound concentration 500 ppm, after 7 days, dipped cabbage leaves
Method: (§1) Phaedon Larvae Test Solvent: 7 parts by weight of dimethylformamide Emulsifier: 2 parts by weight of alkylaryl polyglycol ether To produce a suitable preparation of active compound, 1 part by weight of active compound is mixed with the stated amounts of solvent and emulsifier, and the concentrate is diluted with emulsifier-containing water to the desired concentration. Cabbage leaves (Brassica oleracea) are treated by being dipped into the preparation of active compound of the desired concentration and are populated with larvae of the mustard beetle (Phaedon cochleariae) while the leaves are still moist. After the desired period of time, the kill in % is determined. 100% means that all beetle larvae have been killed; 0% means that none of the beetle larvae have been killed.

[2] = logP determination by HPLC on a reversed-phase column (EEC Directive 79/831 Annex V.A8); format: physicochemical; details: for chromatographic logP: read-out: logP (pH2)
Method: The logP values given in the Preparation Examples and the tables above are determined in accordance with EEC Directive 79/831 Annex V.A8 by HPLC (High Performance Liquid Chromatography) on a reversed-phase column (C 18). Temperature: 43° C.
The determination is carried out in the acidic range at pH 2.3 using the mobile phases 0.1% aqueous phosphoric acid and acetonitrile; linear gradient from 10% acetonitrile to 90% acetonitrile.
Calibration is carried out using unbranched alkan-2-ones (having 3 to 16 carbon atoms) with known logP values (determination of the logP values by the retention times using linear interpolation between two successive alkanones).

[3] = test system: caterpillars of the army worm (Spodoptera frugiperda); test: Spodoptera frugiperda test; format: in vivo; details: active compound concentration 500 ppm, after 7 days, dipped cabbage leaves
Method: as §1, with “Spodoptera Frugiperda” for “Phaedon Larvae”, “caterpillars” for “larvae”, “army worm (Spodoptera frugiperda)” for “mustard beetle (Phaedon cochleariae)”, “caterpillars” for “beetle larvae”

[4] = reversed-phase C18 HPLC column, HPLC, reversed-phase C 18, 43° C., acidic range pH 2.3, 0.1% aqueous phosphoric acid/acetonitrile
[5] = HPLC, reversed-phase C 18, 43° C., acidic range pH 2.3, 0.1% aqueous phosphoric acid/acetonitrile

chromatographic logP [2, 4] | Compound | kill in % [3] [%] | other results
2.27 | CC(C)(C)c1nnn(-c2ccc(N)cc2)n1 [4-(5-tert-butyltetrazol-2-yl)aniline] | – | –
4.11 | N#Cc1cnn(C2CN(C(=O)Nc3ccc(-c4ccccc4)cc3)N=C2c2ccc(Cl)cc2)c1 (stereo not drawn) [Compound 1, N-(4-phenyl)-3-(4-chlorophenyl)-4-(4-cyanopyrazol-1-yl)-4,5-dihydro-1-pyrazolecarboxanilide] | 100 | –
3.91 | CC(C)(C)n1nnc(-c2ccc(NC(=O)N3CC(n4cc(C#N)cn4)C(c4ccc(Cl)cc4)=N3)cc2)n1 (stereo not drawn) [Compound 4, N-[4-(2-tert-butyltetrazol-5-yl)phenyl]-3-(4-chlorophenyl)-4-(4-cyanopyrazol-1-yl)-4,5-dihydro-1-pyrazolecarboxamide] | 100 | kill in % [1]: 100%
4.27 | CC(C)(C)c1nnn(-c2ccc(NC(=O)N3CC(n4cc(C#N)cn4)C(c4ccc(Cl)cc4)=N3)cc2)n1 (stereo not drawn) [Compound 5, N-[4-(5-tert-butyltetrazol-2-yl)phenyl]-3-(4-chlorophenyl)-4-(4-cyanopyrazol-1-yl)-4,5-dihydro-1-pyrazolecarboxamide] | – | –

Further lines, the compound ahead of its results:

Compound | chromatographic logP [2, 4] | kill in % [3] [%] | other results
CC(C)(C)c1nc(-c2ccc(NC(=O)N3CC(n4cc(C#N)cn4)C(c4ccc(Cl)cc4)=N3)cc2)no1 (stereo not drawn) [Compound 2, N-[4-(5-tert-butyl[1.2.4]oxadiazol-3-yl)-phenyl]-3-(4-chlorophenyl)-4-(4-cyanopyrazol-1-yl)-4,5-dihydro-1-pyrazolecarboxamide] | – | 100 | kill in % [1]: 100%; logP (pH2) ([2]; pH 2.3): 4.33
N#Cc1cnn(C2CNN=C2c2ccc(Cl)cc2)c1 (stereo not drawn) [3-(4-chlorophenyl)-4-(4-cyanopyrazol-1-yl)-4,5-dihydro-1H-pyrazole] | 2.11 | – | –
CC(C)(C)n1nnc(-c2ccc(N)cc2)n1 [4-(2-tert-butyltetrazol-5-yl)aniline] | 1.69 | – | –
CC(C)(C)c1noc(-c2ccc(NC(=O)N3CC(n4cc(C#N)cn4)C(c4ccc(Cl)cc4)=N3)cc2)n1 (stereo not drawn) [Compound 3, N-[4-(3-tert-butyl[1,2,4]oxadiazol-5-yl)-phenyl]-3-(4-chlorophenyl)-4-(4-cyanopyrazol-1-yl)-4,5-dihydro-1-pyrazolecarbox-amide] | – | 100 | logP (pH2) ([2]; pH 2.3): 4.38
CC(C)(C)c1nc(-c2ccc(N)cc2)no1 [4-(5-tert-butyl[1,2,4]oxadiazol-3-yl)aniline] | 2.31 | – | –
N#Cc1cnn(CC(=O)c2ccc(Cl)cc2)c1 [2-(4-cyanopyrazol-1-yl)-4′-chloroacetophenone] | – | – | chromatographic logP [2, 5]: 2.2
CC(C)(C)c1noc(-c2ccc(N)cc2)n1 [4-(3-tert-butyl[1,2,4]oxadiazol-5-yl)aniline] | 2.54 | – | –
4-(5-tert-butyltetrazol-2-yl)nitrobenzene | – | – | logP (pH2) [2, 5]: 2.20
